# “And” between values parts separate entries of the source, which are not always exact repeats. Identical values can stand only once.
# Tests used:
# [1] = Three-component miscibility test (mixing in a vial at room temperature and shaking, visual clarity); conditions: for Result (miscibility of ketal with water): 50.0% ketal / 50.0% water, no oxybenzone
# From the text: The term “miscible” and its variations (“miscibility”, “compatibility”, and the like) are used herein as a synonym for “soluble”, i.e., a mixture of the materials by themselves form a “true” solution, in which one material is molecularly dispersed in the other, or in which one material is dispersed as droplets which have a longest dimension of less than 200 nm, such that the mixture is optically clear. […] A fully miscible alkyl ketal ester is soluble in another material, such as water, at all proportions from 99:1 to 1:99. A partially miscible alkyl ketal ester is immiscible in another material in proportions from greater than 30 parts of the alkyl ketal ester in 70 parts or less of the other material and miscible in other combinations. A sparingly miscible alkyl ketal ester is immiscible in another material or miscible in another material to the extent of less than 10 parts in 90 parts of the other material. […] Unless stated otherwise, miscibility is assessed at 25° C. […] By “macroscopically uniform,” it is meant that the formulation is uniform when viewed at a length scale of at least 10 micrometers.
# In these tests, clear mixtures as observed without magnification from a distance of, e.g., 0.3 meters are considered to be “miscible,” whereas cloudy or phase separated mixtures are considered to be “immiscible.” […]
# Three-component mixtures of ethyl-LGK, ethanol, and avobenzone were prepared by mixing the materials at various proportions at room temperature in a vial and shaking. […]
# Three-component mixtures of ethyl-LGK, water, and oxybenzone were prepared by mixing the materials at various proportions at room temperature in a vial and shaking. […]
# Three-component mixtures of Et-LGK, water, and phenoxyethanol were prepared by mixing the materials at various proportions at room temperature in a vial and shaking.
# Three-component mixtures of N,N-diethyl-m-toluamide (DEET), ethyl-LGK, and water were prepared by mixing the materials at various proportions at room temperature in a vial and shaking.
# [2] = Solubility of active agents in neat alkyl ketal esters (dissolution, storage at room temperature); conditions: for % solids dissolved in Bu-LGK with heat, no precipitation: dissolved at 50-80° C., still soluble after 24 hours at room temperature where stated; for % solids dissolved in Et-LGK at room temperature, no precipitation / % solids dissolved in Et-LGK with heat, no precipitation / % solids in Et-LGK that did not (completely) dissolve or precipitated at room temperature: solvent Et-LGK; for % solids dissolved in Et-LGK at room temperature, no precipitation / % solids dissolved in Et-LGK with heat, no precipitation: still soluble after storage at room temperature (24 hours to 5 days) where stated; for % solids dissolved in Et-LPK with heat, no precipitation: dissolved at 50-80° C. or with heat, still soluble after storage at room temperature (24 hours to 5 days); for % solids dissolved in Et-LGK with heat, no precipitation: dissolved at 35-80° C.; for % solids in Et-LGK that did not (completely) dissolve or precipitated at room temperature: partially dissolved or precipitated on room temperature storage; for solubility in many alkyl ketal esters: such as ethyl-LGK and ethyl-LPK; for % solids dissolved in Bu-LGK at room temperature, no precipitation: still soluble after 24 hours / 1 day at room temperature; for % solids in Et-LPK that did not (completely) dissolve or precipitated at room temperature: not completely dissolved or precipitated on room temperature storage; for % solids dissolved in Et-LPK at room temperature, no precipitation: still soluble after 24 hours / 1 day at room temperature where stated; for 50/50 mixture with Et-LGK / 50/50 mixture with Et-LPK: room temperature where stated
# [3] = Miscibility of alkyl ketal esters with water and organic compounds; assay type: physicochemical; conditions: for miscible with water / miscible in water to the extent of / miscible with water to the extent of: 25° C. unless stated otherwise; for dissolves or is miscible with organic compounds to the extent of: organic compounds as listed in the block (alcohols, esters, oils, solvents), 80 parts of the ketal
# Protocol: Unless stated otherwise, miscibility is assessed at 25° C.
compound,measurement,setting,value
"COC(=O)c1ccc(O)cc1 [methyl paraben, Methyl paraben]",level at which by itself immiscible in water,[1]; no ketal,1 % by weight
O=C(CO)[C@H](O)CO [Erythrulose],mixture with Bu-LGK at a ratio of 10/90,[2]; room temperature,separated into distinct phases
same,mixture with Et-LPK at a ratio of 10/90,[2]; room temperature,separated into distinct phases
same,mixture with Et-LGK at a ratio of 10/90,"[2]; room temperature, still soluble after 24 hours",clear uniform solution
"COc1cc(CCC(=O)CC(=O)CCc2ccc(O)c(OC)c2)ccc1O [Tetrahydrocurcuminoids, tetrahydrodiferuloylmethane]","% solids dissolved in Bu-LGK with heat, no precipitation",[2]; solvent Bu-LGK,5%
same,"% solids dissolved in Et-LGK at room temperature, no precipitation",[2],20%
same,"% solids dissolved in Et-LPK with heat, no precipitation",[2]; solvent Et-LPK,5%
CCCCCCC(O)CO (stereo not shown) [Caprylyl glycol],"% solids dissolved in Et-LGK at room temperature, no precipitation",[2],15% and 20.8%
O=C(OOC(=O)c1ccccc1)c1ccccc1 [Benzoyl peroxide],"% solids dissolved in Et-LGK with heat, no precipitation",[2],5%
same,% solids in Et-LGK that did not (completely) dissolve or precipitated at room temperature,[2]; insoluble,9.5%
same,solubility in many alkyl ketal esters,[2],lower solubilities
"CCCOC(=O)c1ccc(O)cc1 [propyl paraben, Propyl paraben]",level of miscibility in Et-LGK by itself,[1],≤ 24%
same,level at which by itself immiscible in water,[1]; no ketal,< 1 % by weight
CCOC(=O)CC1(C)OCC(CO)O1 (stereo not shown) [Et-AcAcGK],Result (miscibility of ketal with water),[1],Miscible
same,miscible with water,[3],in all proportions
CCOC(=O)CCC1(C)OCCO1 [ethyl-LEK],miscible in water to the extent of,[3],5 parts per 95 parts of water by weight
"COc1ccc(C(=O)c2ccccc2)c(O)c1 [oxybenzone, Oxybenzone]",maximum solubility in propyl-LGK,[1],10-18%
same,upper limit of solubility in ethanol,[1],6.5-10%
same,concentration achieved in a solution,[1]; Et-AcAc-GK as a cosolvent (with water),≤ 29%
same,concentration achieved in an ethanolic solution,[1]; Et-LEK as a cosolvent,≤ 30%
same,concentration achieved in a solution,[1]; Methyl-LGK as a cosolvent (with water),≤ 10%
same,concentration achieved in a solution,[1]; alkyl ketal solvent mixture (Et-LGK and Et-LPK 80/20) as a cosolvent (with water),≤ 20%
same,concentration achieved in a water solution,[1]; ethyl-LGK as a cosolvent,≤ 13%
same,concentration achieved in an ethanolic solution,[1]; ethyl-LGK as a cosolvent,≤ 17%
same,concentration achieved in an ethanolic solution,[1]; ethyl-LPK as a cosolvent,≤ 28%
same,level at which by itself immiscible in ethanol,[1]; no ketal,10 % by weight
same,level at which by itself immiscible in water,[1]; no ketal,1 % by weight
same,"% solids dissolved in LEK with heat, no precipitation",[2]; after 2 weeks at room temperature,37.5%
same,% solids that did not dissolve in ACAc-GK,[2]; room temperature,31.9%
same,% solids that did not dissolve in methyl-LGK,[2]; room temperature,14.9%
same,% solids that did not dissolve in propyl-LGK,[2]; room temperature,17.8%
same,"% solids dissolved in Bu-LGK at room temperature, no precipitation",[2]; solvent Bu-LGK,10%
same,% solids dissolved in Et-LEK at room temperature,[2]; solvent Et-LEK,28.5%
same,"% solids dissolved in Et-LGK with heat, no precipitation",[2],20%
same,% solids in Et-LGK that did not (completely) dissolve or precipitated at room temperature,[2]; insoluble,25%
same,"% solids dissolved in Et-LGK at room temperature, no precipitation",[2],10% and 18%
same,"% solids dissolved in Et-LPK with heat, no precipitation",[2]; solvent Et-LPK,30%
same,% solids in Et-LPK that did not (completely) dissolve or precipitated at room temperature,"[2]; solvent Et-LPK, insoluble",40%
CC1=C(/C=C/C(C)=C/C=C/C(C)=C/C(=O)O)C(C)(C)CCC1 [Retinoic acid],% solids soluble in Et-LPK at 80° C.,"[2]; solvent Et-LPK, 80° C.",1.88%
same,solubility in many alkyl ketal esters,[2],lower solubilities
CCCOC(=O)CCC1(C)OCC(CO)O1 (stereo not shown) [n-propyl-LGK],miscible with water to the extent of,[3],1 part per 99 parts water
"OCCOc1ccccc1 [phenoxyethanol, Phenoxyethanol]",amount dissolved / solubilized by Et-LGK/water cosolvent mixtures,[1],~50 % by weight
O=C(CCCCc1ccc2c(c1)OCO2)N1CCCCC1 [Tetrahydropiperine],"% solids dissolved in Bu-LGK at room temperature, no precipitation",[2]; solvent Bu-LGK,20%
same,"% solids dissolved in Et-LGK at room temperature, no precipitation",[2],20%
same,"% solids dissolved in Et-LPK at room temperature, no precipitation",[2]; solvent Et-LPK,20%
"CCN(CC)C(=O)c1cccc(C)c1 [DEET, N,N-diethyl-m-toluamide]",solubility in ethanol and ethyl-LPK,[1],soluble
same,clarity of DEET / ethyl-LGK / water mixture,"[1]; 26.7 parts of DEET, 60.5 parts of ethyl-LGK, 12.8 parts of water, room temperature",clear mixture
same,50/50 mixture with Et-LGK,[2],miscible
same,50/50 mixture with Et-LPK,[2],miscible
COC(=O)CCC1(C)OCC(CO)O1 (stereo not shown) [methyl-LGK],Result (miscibility of ketal with water),[1],Miscible
same,miscible with water,[3],in all proportions
"COC1=C(OC)C(=O)C(C/C=C(\C)CC/C=C(\C)CC/C=C(\C)CC/C=C(\C)CC/C=C(\C)CC/C=C(\C)CC/C=C(\C)CC/C=C(\C)CC/C=C(\C)CCC=C(C)C)=C(C)C1=O [Coenzyme Q10, Ubiquinone]",% solids in Bu-LGK that did not (completely) dissolve,"[2]; solvent Bu-LGK, insoluble, dispersion or partially dissolved",5%
same,% solids in Et-LGK that did not (completely) dissolve or precipitated at room temperature,[2]; insoluble,3.7%
CCOC(=O)CCC1(C)OCC(C)O1 (stereo not shown) [ethyl-LPK],miscible in water to the extent of,[3],2.5 parts in 97.5 parts of water
same,dissolves or is miscible with organic compounds to the extent of,[3],at least 20 parts of the organic compound in 80 parts
COC(=O)CC1(C)OCC(CO)O1 (stereo not shown) [Me-AcAcGK],miscible with water,[3],in all proportions
CCOC(=O)CCC1(C)OCC(CO)O1 (stereo not shown) [ethyl-LGK],miscible with water,[3],in all proportions
same,dissolves or is miscible with organic compounds to the extent of,[3],at least 20 parts of the organic compound in 80 parts
"O=C(O)c1ccccc1O [salicylic acid, Salicylic acid]","% solids dissolved in Bu-LGK with heat, no precipitation",[2]; solvent Bu-LGK,10%
same,% solids in Et-LGK that did not (completely) dissolve or precipitated at room temperature,[2]; insoluble,20.8%
same,"% solids dissolved in Et-LGK at room temperature, no precipitation",[2],15%
same,% solids in Et-LPK that did not (completely) dissolve or precipitated at room temperature,"[2]; solvent Et-LPK, insoluble",14.3%
same,"% solids dissolved in Et-LPK at room temperature, no precipitation",[2]; solvent Et-LPK,11%
CCCCOC(=O)CCC1(C)OCC(CO)O1 (stereo not shown) [n-butyl-LGK],miscible with water to the extent of,[3],1 part per 99 parts water
same,dissolves or is miscible with organic compounds to the extent of,[3],at least 20 parts of the organic compound in 80 parts
CCCCOC(=O)CCC1(C)OCC(C)O1 (stereo not shown) [n-butyl-LPK],miscible with water to the extent of,[3],about 1 part per 99 parts water
same,dissolves or is miscible with organic compounds to the extent of,[3],at least 20 parts of the organic compound in 80 parts
Oc1ccc(C=Cc2cc(O)cc(O)c2)cc1 [Resveratrol],"% solids dissolved in Bu-LGK with heat, no precipitation",[2]; solvent Bu-LGK,0.5%
same,"% solids dissolved in Et-LGK at room temperature, no precipitation",[2],1%
same,"% solids dissolved in Et-LPK with heat, no precipitation",[2]; solvent Et-LPK,0.5%
same,solubility in many alkyl ketal esters,[2],lower solubilities
Oc1ccc(O)cc1 [Hydroquinone],"% solids dissolved in Et-LGK with heat, no precipitation",[2],5%
same,"% solids dissolved in Et-LPK with heat, no precipitation",[2]; solvent Et-LPK,10%
"CCCCC(CC)COC(=O)C=Cc1ccc(OC)cc1 (stereo not shown) [octyl methoxycinnamate, Ethylhexyl methoxy cinnamate]",50/50 mixture with Bu-LGK,[2]; room temperature,soluble
same,50/50 mixture with Et-LGK,[2],soluble
same,50/50 mixture with Et-LPK,[2],soluble
COc1cc2c(cc1O)CCC(C)(C)O2 [Dimethylmethoxy Chromanol],"% solids dissolved in Bu-LGK at room temperature, no precipitation",[2]; solvent Bu-LGK,2.5%
same,"% solids dissolved in Et-LGK at room temperature, no precipitation",[2],2.5%
same,"% solids dissolved in Et-LPK at room temperature, no precipitation",[2]; solvent Et-LPK,2.5%
